# Where two headings read alike, the source gives them in different places. Non-standard residues stand in square brackets, D forms with d. Residues, ends and D or L forms follow the SMILES beside them. *: point of attachment. DOTA = O=C(O)CN1CCN(CC(=O)O)CCN(CC(=O)*)CCN(CC(=O)O)CC1; 1Nal = N[C@@H](Cc1cccc2ccccc12)C(=O)O; NMeNle = CCCC[C@H](NC)C(=O)O
# Experiment: biodistribution in A431-CCK2R/A431-mock xenografted BALB/c nude mice
# Type: in vivo
# Conditions: female, athymic BALB/c nude, mouse, iv, total radioactivity; for tissue to tissue ratio at 4 h / tissue uptake at 4 h: 4 h p.i.; for tissue uptake at 12 h / tissue to tissue ratio at 12 h: 12 h p.i.
# Procedure: Biodistribution studies evaluating the tumor uptake of the radiolabeled peptides were performed in 7- to 9-week-old female athymic BALB/c nude mice (Charles River, Sulzfeld, Germany). For the induction of tumor xenografts, 150 μL of DMEM containing 2 × 10^6 A431-CCK2R and A431-mock cells were injected subcutaneously in the right and left flank of each mouse, respectively. And 10–14 days after injection, tumors reached a medium weight of ∼0.25 g. The mice were divided into groups of four and injected intravenously via a lateral tail vein with 0.2 MBq of ^111In-labeled compound (0.02 nmol) and 0.7 and 1.5 MBq of the ^177Lu-labeled compound (0.02 and 0.15 nmol). At 4 and 12 h p.i., the mice were sacrificed and the tumors and other tissues (blood, lung, heart, muscle, spleen, intestine, liver, kidneys, stomach, and pancreas) were removed, weighed, and their radioactivity measured in the γ counter together with the rest of the body. Initial biodistribution studies were performed with the three ^177Lu-labeled CCK2R-targeting ligands at an injected peptide amount of 20 pmol for the time point of 4 h p.i. From these studies, two peptide analogues were selected to further characterize the biodistribution profile also at a later time point of 12 h p.i. and at a higher injected peptide amount of 150 pmol. Additional animal studies were performed for the ^111In-labeled conjugates. Percentage of injected activity per gram tissue (%IA/g), tumor-to-organ activity ratios, as well as whole body activity were calculated for each sample and statistical analysis using independent two-population t-test (significance level p < 0.05) was performed using Origin software. For the comparison of more than two groups, data were analyzed using one-way analysis of variance (ANOVA) Holm–Bonferroni-adjusted post hoc analysis (significance level p < 0.05) using Microsoft Excel 2010 software (Microsoft Excel 2010, Microsoft Corporation, WA).
# [1] = A431-CCK2R xenograft tumor, 20 pmol, 20 pmol, read-out: tumor uptake in A431-CCK2R xenografts
# [2] = A431-mock xenograft tumor, 20 pmol, 20 pmol, read-out: uptake in A431-mock xenografts
# [3] = blood, 20 pmol, 20 pmol, read-out: uptake in blood
# [4] = heart, 20 pmol, 20 pmol, read-out: uptake in heart
# [5] = intestine, 20 pmol, 20 pmol, read-out: uptake in intestine
# [6] = kidney, 20 pmol, 20 pmol, read-out: uptake in kidney
# [7] = liver, 20 pmol, 20 pmol, read-out: uptake in liver
# [8] = lung, 20 pmol, 20 pmol, read-out: uptake in lung
# [9] = muscle, 20 pmol, 20 pmol, read-out: uptake in muscle
# [10] = pancreas, 20 pmol, 20 pmol, read-out: uptake in pancreas
# [11] = spleen, 20 pmol, 20 pmol, read-out: uptake in spleen
# [12] = stomach, 20 pmol, 20 pmol, read-out: uptake in stomach
compound,measurement,setting,value
"CCCC[C@@H](C(=O)N[C@@H](CC(=O)O)C(=O)N[C@@H](Cc1cccc2ccccc12)C(N)=O)N(C)C(=O)[C@H](Cc1c[nH]c2ccccc12)NC(=O)CNC(=O)[C@@H]1CCCN1C(=O)[C@H](Cc1ccc(O)cc1)NC(=O)[C@@H](CCC(=O)O)NC(=O)CN1CCN(CC(=O)O)CCN(CC(=O)O)CCN(CC(=O)O)CC1 [[^177Lu]Lu-2, metal not drawn] ({DOTA}-[dE]YPGW[NMeNle]D[1Nal]-NH2)",tissue to tissue ratio at 4 h,"A431-CCK2R xenograft tumor / blood, 20 pmol, 20 pmol, read-out: tumor-to-blood ratio",429 ± 134
same,tissue to tissue ratio at 4 h,"A431-CCK2R xenograft tumor / kidney, 20 pmol, 20 pmol, read-out: tumor-to-kidney ratio",6.51 ± 2.29
same,tissue to tissue ratio at 4 h,"A431-CCK2R xenograft tumor / liver, 20 pmol, 20 pmol, read-out: tumor-to-liver ratio",80.6 ± 26.5
same,tissue to tissue ratio at 4 h,"A431-CCK2R xenograft tumor / stomach, 20 pmol, 20 pmol, read-out: tumor-to-stomach ratio",7.31 ± 1.84
same,tissue uptake at 4 h,[1],33.2 ± 6.34 %ID/g
same,tissue uptake at 12 h,[1],25 ± 4.92 %ID/g
same,tissue uptake at 4 h,"A431-CCK2R xenograft tumor, 150 pmol, 150 pmol, read-out: tumor uptake in A431-CCK2R xenografts",17.2 ± 5.98 %ID/g
same,tissue uptake at 4 h,[2],0.25 ± 0.06 %ID/g
same,tissue uptake at 12 h,[2],0.15 ± 0.03 %ID/g
same,tissue uptake at 4 h,"A431-mock xenograft tumor, 150 pmol, 150 pmol, read-out: uptake in A431-mock xenografts",0.33 ± 0.05 %ID/g
same,tissue uptake at 4 h,[3],0.08 ± 0.01 %ID/g
same,tissue uptake at 12 h,[3],0.01 %ID/g
same,tissue uptake at 4 h,"blood, 150 pmol, 150 pmol, read-out: uptake in blood",0.09 ± 0.01 %ID/g
same,tissue uptake at 4 h,[4],0.09 ± 0.01 %ID/g
same,tissue uptake at 12 h,[4],0.05 ± 0.01 %ID/g
same,tissue uptake at 4 h,"heart, 150 pmol, 150 pmol, read-out: uptake in heart",0.15 ± 0.05 %ID/g
same,tissue uptake at 4 h,[5],0.56 ± 0.1 %ID/g
same,tissue uptake at 12 h,[5],0.19 ± 0.02 %ID/g
same,tissue uptake at 4 h,"intestine, 150 pmol, 150 pmol, read-out: uptake in intestine",0.55 ± 0.08 %ID/g
same,tissue uptake at 4 h,[6],5.53 ± 1.51 %ID/g
same,tissue uptake at 12 h,[6],3.37 ± 0.17 %ID/g
same,tissue uptake at 4 h,"kidney, 150 pmol, 150 pmol, read-out: uptake in kidney",7.88 ± 1.26 %ID/g
same,tissue uptake at 4 h,[7],0.43 ± 0.08 %ID/g
same,tissue uptake at 12 h,[7],0.27 ± 0.03 %ID/g
same,tissue uptake at 4 h,"liver, 150 pmol, 150 pmol, read-out: uptake in liver",0.79 ± 0.19 %ID/g
same,tissue uptake at 4 h,[8],0.17 ± 0.01 %ID/g
same,tissue uptake at 12 h,[8],0.08 ± 0.01 %ID/g
same,tissue uptake at 4 h,"lung, 150 pmol, 150 pmol, read-out: uptake in lung",0.25 ± 0.04 %ID/g
same,tissue uptake at 4 h,[9],0.06 ± 0.03 %ID/g
same,tissue uptake at 12 h,[9],0.02 %ID/g
same,tissue uptake at 4 h,"muscle, 150 pmol, 150 pmol, read-out: uptake in muscle",0.1 ± 0.09 %ID/g
same,tissue uptake at 4 h,[10],1.21 ± 0.49 %ID/g
same,tissue uptake at 12 h,[10],0.82 ± 0.06 %ID/g
same,tissue uptake at 4 h,"pancreas, 150 pmol, 150 pmol, read-out: uptake in pancreas",0.73 ± 0.55 %ID/g
same,tissue uptake at 4 h,[11],0.16 ± 0.01 %ID/g
same,tissue uptake at 12 h,[11],0.13 ± 0.01 %ID/g
same,tissue uptake at 4 h,"spleen, 150 pmol, 150 pmol, read-out: uptake in spleen",0.28 ± 0.08 %ID/g
same,tissue uptake at 4 h,[12],4.68 ± 0.93 %ID/g
same,tissue uptake at 12 h,[12],4.12 ± 0.82 %ID/g
same,tissue uptake at 4 h,"stomach, 150 pmol, 150 pmol, read-out: uptake in stomach",1.02 ± 0.45 %ID/g
same,tissue to tissue ratio at 12 h,"tumor/blood, 20 pmol, 20 pmol, read-out: tumor-to-blood ratio",2000 ± 750
same,tissue to tissue ratio at 4 h,"tumor/blood, 150 pmol, 150 pmol, read-out: tumor-to-blood ratio",188 ± 80
same,tissue to tissue ratio at 12 h,"tumor/kidney, 20 pmol, 20 pmol, read-out: tumor-to-kidney ratio",7.41 ± 1.33
same,tissue to tissue ratio at 4 h,"tumor/kidney, 150 pmol, 150 pmol, read-out: tumor-to-kidney ratio",2.23 ± 0.87
same,tissue to tissue ratio at 12 h,"tumor/liver, 20 pmol, 20 pmol, read-out: tumor-to-liver ratio",131 ± 37
same,tissue to tissue ratio at 4 h,"tumor/liver, 150 pmol, 150 pmol, read-out: tumor-to-liver ratio",22.8 ± 10
same,tissue to tissue ratio at 12 h,"tumor/stomach, 20 pmol, 20 pmol, read-out: tumor-to-stomach ratio",6.15 ± 1.12
same,tissue to tissue ratio at 4 h,"tumor/stomach, 150 pmol, 150 pmol, read-out: tumor-to-stomach ratio",12.7 ± 4.9

# — publication PMC7734625, “Stabilization Strategies for Linear Minigastrin Analogues: Further Improvements via the Inclusion of Proline into the Peptide Sequence” (Journal of Medicinal Chemistry, 2020)
